From patent US20030083469A1, “Allosteric control of nuclear hormone receptors” (The Salk Institute for Biological Studies, priority 1995, published 2003)

Legend:
Type in all cases: cell-based
RXR LBD = target: T1, RXR LBD (Homo sapiens, UniProt P19793); test: Transient transfection, RXR LBD expressed alone (UASG x4 TK-LUC); conditions: 100 nM LG69
T1 construct: or the human RXRα LBD (Glu 203 -Thr 462); expressed in transfected cells; host or cells: CV-1
T1 sequence (P19793 203-462): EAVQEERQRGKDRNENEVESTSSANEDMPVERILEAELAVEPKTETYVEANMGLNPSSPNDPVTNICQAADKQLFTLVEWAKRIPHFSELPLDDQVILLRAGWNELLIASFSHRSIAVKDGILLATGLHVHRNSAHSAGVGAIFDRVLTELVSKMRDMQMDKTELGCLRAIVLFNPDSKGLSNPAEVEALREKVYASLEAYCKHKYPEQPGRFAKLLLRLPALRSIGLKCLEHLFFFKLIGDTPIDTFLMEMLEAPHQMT
Method: (§1) CV-1 cells were grown in Dulbecco's Modified Eagle's medium supplemented with 10% resin-charcoal stripped (Samuels et al., Endocrinology 105:80-85 (1979)) fetal bovine serum, 50 U/ml penicillin G and 50 μg/ml streptomycin sulfate (DMEM-FBS) at 37° C. in 5% CO2. One day prior to transfection, cells were plated to 50-80% confluence using phenol-red free DMEM-FBS. Cells were transfected by lipofection using N-{2-(2,3)-dioleoyloxy)propyl-N,N,N-trimethyl ammonium methyl sulfate} according to the manufacturer's instructions (DOTAP, Boehringer Mannheim). […] Cells were harvested and assayed for luciferase and β-galactosidase activity. All points were performed in triplicate in each experiment and varied by less than 10%. Each experiment was repeated three or more times with similar results.
(§2) Since RXR serves as a silent partner in the T3R and RAR pathways, it was next investigated whether RXR could serve as an active component in other complexes. To search for such complexes, the LBD of a number of nuclear receptors were fused to the GAL4 DBD, and tested to determine whether the RXR LBD could confer LG69 responsiveness upon these GAL-LBD chimeras. […] Normalized luciferase activity was determined and plotted as fold-activation relative to untreated cells.

GAL-RXR = target: T2, GAL-RXR (Homo sapiens, UniProt P19793); test: Transient transfection analysis of GAL-RXR LBD alone (UASG x4 TK-LUC, CV-1 cells); conditions: 100 nM LG69
T2 construct: human RXRα LBD (Glu 203 - Thr 462); expressed in transfected cells; host or cells: CV-1
T2 sequence (P19793 203-462): T1 sequence (P19793 203-462)
Method: CV-1 cells were grown in Dulbecco's Modified Eagle's medium supplemented with 10% resin-charcoal stripped (Samuels et al., Endocrinology 105:80-85 (1979)) fetal bovine serum, 50 U/ml penicillin G and 50 μg/ml streptomycin sulfate (DMEM-FBS) at 37° C. in 5% CO2. One day prior to transfection, cells were plated to 50-80% confluence using phenol-red free DMEM-FBS. Cells were transfected by lipofection using N-{2-(2,3)-dioleoyloxy)propyl-N,N,N-trimethyl ammonium methyl sulfate} according to the manufacturer's instructions (DOTAP, Boehringer Mannheim). […]. All points were performed in triplicate in each experiment and varied by less than 10%. Each experiment was repeated three or more times with similar results.
Thus, a chimeric protein was constructed containing the yeast GAL4 DBD linked to the RXR LBD (GAL-RXR). The ability of this RXR-chimera to respond to LG69 was initially examined in the presence of truncated receptors containing the LBDs of T3R or RAR. Thus, transient transfection analysis of GAL-RXR LBD was carried out in the presence of T3R, RAR or VDR LBDs. Reporter constructs contained 4 copies of the UASG cloned upstream of the TK-LUC reporter. […] Normalized luciferase activity was determined and plotted as reporter activity (see FIG. 3).
[…]. Normalized luciferase activity was determined and plotted as fold-activation relative to untreated cells.

GAL-T3R + RXR LBD = target: T3, GAL-T3R + RXR LBD (Homo sapiens, UniProt P19793); test: Transient transfection of GAL-T3R chimera with RXR LBD; conditions: 100 nM LG69
T3 construct: or the human RXRα LBD (Glu 203 -Thr 462); expressed in transfected cells; host or cells: CV-1
T3 sequence (P19793 203-462): T1 sequence (P19793 203-462)
T3 sequence (P10828 178-461 partner): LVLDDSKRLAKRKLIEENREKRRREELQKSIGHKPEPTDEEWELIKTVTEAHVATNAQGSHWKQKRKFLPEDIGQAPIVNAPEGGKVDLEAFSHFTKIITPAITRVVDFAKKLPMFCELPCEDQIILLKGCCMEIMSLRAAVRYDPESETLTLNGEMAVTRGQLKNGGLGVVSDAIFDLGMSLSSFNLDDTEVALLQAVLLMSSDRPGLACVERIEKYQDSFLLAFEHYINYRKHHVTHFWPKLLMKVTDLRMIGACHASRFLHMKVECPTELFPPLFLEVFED
Method: as §1, §2

Nurrl = target: T4, Nurrl (Mus musculus, UniProt Q06219); test: Transient transfection of full-length Nurrl on NBRE x3 TK-LUC; conditions: Nurrl alone; 100 nM LG69
T4 construct: an expression vector for full-length mouse Nurrl; expressed in transfected cells; host or cells: CV-1
Method: as §1
Thus, CV-1 cells were tranfected with NBRE×3 TK-LUC (300 ng/10^5 cells) , CMX-βgal (500 ng/10^5 cells), alone or with CMX-Nurrl (100 ng/10^5 cells) and CMX-hRXRα (100 ng/10^5 cells) as indicated in FIG. 7B. Following transfection, cells were treated with or without 100 nM LG69. Normalized luciferase activity was determined and plotted as reporter activity.

T4 sequence (Q06219 whole entry): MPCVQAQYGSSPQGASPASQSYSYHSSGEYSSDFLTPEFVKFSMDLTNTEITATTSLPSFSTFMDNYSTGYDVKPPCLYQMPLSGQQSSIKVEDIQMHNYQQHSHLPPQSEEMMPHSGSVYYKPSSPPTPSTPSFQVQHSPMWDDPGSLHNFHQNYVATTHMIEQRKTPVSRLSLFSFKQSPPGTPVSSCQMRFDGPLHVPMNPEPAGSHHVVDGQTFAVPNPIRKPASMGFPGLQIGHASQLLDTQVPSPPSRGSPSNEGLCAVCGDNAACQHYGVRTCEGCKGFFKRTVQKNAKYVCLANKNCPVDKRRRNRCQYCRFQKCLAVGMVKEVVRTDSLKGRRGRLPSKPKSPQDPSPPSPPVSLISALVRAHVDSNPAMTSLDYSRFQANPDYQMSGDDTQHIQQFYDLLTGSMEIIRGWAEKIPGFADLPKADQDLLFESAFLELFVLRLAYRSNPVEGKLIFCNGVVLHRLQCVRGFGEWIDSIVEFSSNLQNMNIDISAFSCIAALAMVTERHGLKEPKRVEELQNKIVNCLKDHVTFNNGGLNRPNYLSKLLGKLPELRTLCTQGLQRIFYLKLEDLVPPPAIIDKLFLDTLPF

## CC=C(c1ccc(C(=O)O)cc1)c1cc2c(cc1C)C(C)(C)CCC2(C)C [LG69, 4-{1-(3,5,5,8,8-pentamethyl-5,6,7,8-tetrahydro-2-napthalenyl)-1-propenyl}benzoic acid]
RXR LBD
  LG69 responsiveness: not seen
GAL-RXR
  activation of the UASG reporter by GAL-RXR in response to ligand: activated
GAL-RXR; GAL-RXR alone
  fold response to LG69: 69 fold
GAL-T3R + RXR LBD
  LG69 responsiveness: not seen
Nurrl
  responsiveness of Nurrl on the NBRE reporter: not responsive
